# Source: patent US7053107B2, “Indazole compounds and pharmaceutical compositions for inhibiting protein kinases, and methods for their use” (Agouron Pharmaceuticals, Inc., priority 2002, dated 2006)
# How the values were obtained:
# [1] = target: T1, unphosphorylated VEGF-R2Δ50 (Homo sapiens, UniProt P35968, DEL940-989/E990V); experiment: VEGF-R2 coupled spectrophotometric assay, unphosphorylated construct (FLVK); format: biochemical; conditions: % inhibition at 50 nM compound; read-out: FLVK Ki % inh @ 50 nM
# T1 construct: VEGF-R2Δ50 contains residues 806–939 and 990–1171; made in house; host or cells: baculovirus/insect cell system
# Summary of the method: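 Human VEGF-R2Δ50 kinase (residues 806–939/990–1171, baculovirus-expressed; autophosphorylated form pre-treated with 3 mM ATP, 4° C, 2 h), 5–40 nM, with poly(E4Y1) in 200 mM HEPES pH 7.5; ADP coupled via PK/LDH to NADH oxidation at 340 nm. Phosphorylated: 1 mM ATP, 5.1 mM poly(E4Y1), 25 mM MgCl2; unphosphorylated: 3 mM ATP, 20 mM poly(E4Y1), 60 mM MgCl2, 2 mM MnCl2. Ki from activity at varying compound levels.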
# LCK = target: T2, LCK (Homo sapiens, UniProt P06239, C224D/P223M); experiment: Lymphocyte-Specific Protein-Tyrosine Kinase (LCK) spectrophotometric assay; format: biochemical; conditions: 1 μM compound; read-out: LckP* % inhibit @1 μM
# T2 construct: starting from amino acid residue 223 to the end of the protein at residue 509; made in house; host or cells: insect cells
# PDGFRβ = target: T3, PDGFRβ (Homo sapiens, UniProt P09619); experiment: PAE-PDGFRβ Phosphorylation in PAE-PDGFRB Cells Assay; format: cell-based; conditions: PAE cells overexpressing human PDGFRβ; read-out: PAE PDGFR autophos IC50
# T3 construct: expressed in transfected cells; host or cells: porcine aorta endothelial (PAE) cells
# Summary of the method: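 PAE cells overexpressing human PDGFRβ, serum-starved 16 h (0.1% FBS), compound 1 h at 37° C (0.5% DMSO), then 1 μg/mL PDGF-BB with 2 mM Na3VO4 for 8 min. Receptor captured by anti-PDGFRβ, phosphotyrosine detected by HRP-PY20/TMB at 450 nm; IC50 by four-parameter fit.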
# HUVEC [2] = experiment: bFGF Huvec; format: cell-based; conditions: Homo sapiens
# HUVEC [3] = experiment: HUVEC + albumin proliferation; format: cell-based; conditions: Homo sapiens, 72 h, with albumin
# Method: This assay determines the ability of a test compound to inhibit the growth factor-stimulated proliferation of human umbilical vein endothelial cells (“HUVEC”). HUVEC cells (passage 3–4, Clonetics, Corp.) were thawed into EGM2 culture medium (Clonetics Corp) in T75 flasks. Fresh EGM2 medium was added to the flasks 24 hours later. Four or five days later, cells were exposed to another culture medium (F12K medium supplemented with 10% fetal bovine serum (FBS), 60 μg/mL endothelial cell growth supplement (ECGS), and 0.1 mg/mL heparin). Exponentially-growing HUVEC cells were used in experiments thereafter. Ten to twelve thousand HUVEC cells were plated in 96-well dishes in 100 μl of rich, culture medium (described above). The cells were allowed to attach for 24 hours in this medium. The medium was then removed by aspiration and 105 μl of starvation media (F12K+1% FBS) was added to each well. After 24 hours, 15 μl of test agent dissolved in 1% DMSO in starvation medium or this vehicle alone was added into each treatment well; the final DMSO concentration was 0.1%. One hour later, 30 μl of VEGF (30 ng/mL) in starvation media was added to all wells except those containing untreated controls; the final VEGF concentration was 6 ng/mL. Cellular proliferation was quantified 72 hours later by MTT dye reduction, at which time cells were exposed for 4 hours MTT (Promega Corp.). Dye reduction was stopped by addition of a stop solution (Promega Corp.) and absorbance at 595λ was determined on a 96-well spectrophotometer plate reader.
# IC50 values were calculated by curve-fitting the response of A^595 to various concentrations of the test agent; typically, seven concentrations separated by 0.5 log were employed, with triplicate wells at each concentration. For screening compound library plates, one or two concentrations (one well per concentration) were employed, and the % inhibition was calculated by the following formula: % inhibition=(control−test)[…](control−starvation) where
# T1 sequence (P35968 with tags, fused parts or gaps DEL940-989/E990V limits assumed): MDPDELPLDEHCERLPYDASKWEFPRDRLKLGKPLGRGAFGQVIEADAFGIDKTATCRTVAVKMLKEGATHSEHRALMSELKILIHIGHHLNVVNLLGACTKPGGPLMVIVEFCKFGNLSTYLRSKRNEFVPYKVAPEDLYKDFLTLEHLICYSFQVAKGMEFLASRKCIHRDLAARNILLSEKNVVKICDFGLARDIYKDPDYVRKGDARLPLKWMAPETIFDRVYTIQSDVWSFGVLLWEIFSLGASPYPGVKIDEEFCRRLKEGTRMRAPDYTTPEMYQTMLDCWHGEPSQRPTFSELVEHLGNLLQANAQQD
# T2 sequence (P06239 223-509 P223M/C224D): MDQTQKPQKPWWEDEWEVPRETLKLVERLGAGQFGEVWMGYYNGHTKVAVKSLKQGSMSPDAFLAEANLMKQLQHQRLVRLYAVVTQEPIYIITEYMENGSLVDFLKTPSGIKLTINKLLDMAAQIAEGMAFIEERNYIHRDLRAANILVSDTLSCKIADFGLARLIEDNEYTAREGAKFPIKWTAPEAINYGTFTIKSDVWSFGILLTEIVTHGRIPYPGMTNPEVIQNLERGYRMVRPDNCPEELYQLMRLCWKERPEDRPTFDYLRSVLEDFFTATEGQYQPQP
# T3 sequence (P09619 33-1106): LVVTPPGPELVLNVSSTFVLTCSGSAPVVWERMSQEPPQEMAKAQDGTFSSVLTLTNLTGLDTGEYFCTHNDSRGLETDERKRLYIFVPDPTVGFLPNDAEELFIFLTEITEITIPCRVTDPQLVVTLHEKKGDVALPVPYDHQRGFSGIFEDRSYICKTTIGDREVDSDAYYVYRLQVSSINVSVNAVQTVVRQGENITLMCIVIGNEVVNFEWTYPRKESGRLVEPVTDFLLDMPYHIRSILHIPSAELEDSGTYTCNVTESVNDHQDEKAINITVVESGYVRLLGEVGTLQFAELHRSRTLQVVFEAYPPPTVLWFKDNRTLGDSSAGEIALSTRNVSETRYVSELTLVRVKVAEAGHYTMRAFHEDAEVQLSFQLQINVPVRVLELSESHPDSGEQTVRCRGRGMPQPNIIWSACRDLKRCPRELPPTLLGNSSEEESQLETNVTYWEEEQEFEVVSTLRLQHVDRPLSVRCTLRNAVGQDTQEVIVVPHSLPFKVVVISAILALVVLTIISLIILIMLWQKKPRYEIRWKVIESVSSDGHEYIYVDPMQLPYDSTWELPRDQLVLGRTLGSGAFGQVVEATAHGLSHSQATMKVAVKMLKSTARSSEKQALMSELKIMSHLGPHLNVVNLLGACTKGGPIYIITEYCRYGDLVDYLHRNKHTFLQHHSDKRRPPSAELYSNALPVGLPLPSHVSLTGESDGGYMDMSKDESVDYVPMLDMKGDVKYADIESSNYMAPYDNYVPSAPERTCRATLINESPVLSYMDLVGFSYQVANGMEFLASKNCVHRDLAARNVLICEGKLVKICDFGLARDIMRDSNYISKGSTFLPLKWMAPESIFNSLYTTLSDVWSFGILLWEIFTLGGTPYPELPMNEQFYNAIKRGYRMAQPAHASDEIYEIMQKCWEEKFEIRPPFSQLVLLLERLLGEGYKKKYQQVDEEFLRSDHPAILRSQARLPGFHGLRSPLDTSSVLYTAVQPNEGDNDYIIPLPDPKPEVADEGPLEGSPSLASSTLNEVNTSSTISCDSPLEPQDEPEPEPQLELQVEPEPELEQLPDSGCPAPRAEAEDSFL
SMILES,inhibition at 0.05 µM [1],inhibition at 1 µM (LCK),IC50 (PDGFRβ),IC50 (HUVEC [2]),IC50 (HUVEC [3])
"C=C(C)CNC(=O)c1ccccc1Nc1ccc2c(/C=C/c3ccccn3)n[nH]c2c1 [Example 3(k), N-(2-Methyl-allyl)-2-[3-((E)-2-pyridin-2-yl-vinyl)-1H-indazol-6-ylamino]-benzamide]",74%,19%,5 nM,1000 nM,
"Cc1cc(C)nc(/C=C/c2n[nH]c3cc(Nc4ccccc4C(=O)NCC#CCO)ccc23)c1 [Example 10, 2-{3-[(E)-2-(4,6-Dimethyl-pyridin-2-yl)-vinyl]-1H-indazol-6-ylamino}-N-(4-hydroxy-but-2-ynyl)-benzamide]",76%,,21 nM,,
"O=C(NC1CC1)c1ccccc1Nc1ccc2c(/C=C/c3ccccn3)n[nH]c2c1 [Example 3(d), N-Cyclopropyl-2-[3-((E)-2-pyridin-2-yl-vinyl)-1H-indazol-6-ylamino]-benzamide]",89%,11%,3.5 nM,147 nM,7.5 nM
"O=C(NC1CCC1)c1ccccc1Nc1ccc2c(/C=C/c3ccccn3)n[nH]c2c1 [Example 3(j), N-Cyclobutyl-2-[3-((E)-2-pyridin-2-yl-vinyl)-1H-indazol-6-ylamino]-benzamide]",80%,17%,4.7 nM,,
"O=C(NCC#CCO)c1ccccc1Nc1ccc2c(/C=C/c3ccccn3)n[nH]c2c1 [Example 64, N-(4-Hydroxy-but-2-ynyl)-2-[3-(2-pyridin-2-yl-vinyl)-1H-indazol-6-ylamino]-benzamide]",94%,,5.5 nM,1250 nM,

# The next compounds have a lower IC50 (PDGFRβ) than those just listed; values first:
inhibition at 0.05 µM [1],inhibition at 1 µM (LCK),IC50 (PDGFRβ),SMILES,IC50 (HUVEC [2]),IC50 (HUVEC [3])
78%,,0.5 nM,"C#CCNC(=O)c1ccccc1Nc1ccc2c(/C=C/c3cc(C)ccn3)n[nH]c2c1 [Example 32, 2-{3-[(E)-2-(4-Methyl-pyridin-2-yl)-vinyl]-1H-indazol-6-ylamino}-N-prop-2-ynyl-benzamide]",,
96%,37%,0.63 nM,"COc1ccccc1CNC(=O)c1ccccc1Nc1ccc2c(/C=C/c3ccccn3)n[nH]c2c1 [Example 3(h), N-(2-Methoxy-benzyl)-2-[3-((E)-2-pyridin-2-yl-vinyl)-1H-indazol-6-ylamino]-benzamide]",,
84%,,2.8 nM,"Cc1ccnc(/C=C/c2n[nH]c3cc(Nc4ccccc4C(=O)NC4CC4)ccc23)c1 [Example 2(h), N-Cyclopropyl-2-{3-[(E)-2-(4-methyl-pyridin-2-yl)-vinyl]-1H-indazol-6-ylamino}-benzamide]",70 nM,
